Experimental data published in paper PMC5481814, “Stapled Voltage-Gated Calcium Channel (CaV) α-Interaction Domain (AID) Peptides Act As Selective Protein–Protein Interaction Inhibitors of CaV Function” (ACS Chemical Neuroscience, 2017).
Starred links: 1 amine or outer side, 2 acyl side, 3 side chain; linkers in the order of their positions; H or OH if unused. Positions of bridges follow the written chain, without caps; N, C: chain ends. Residues, ends and D or L forms follow the SMILES beside them. No end group written: not given here. mXylylene = c1cc(C[*:1])cc(C[*:2])c1

Tests used:
[1] = target: CaVβ2a core (Rattus norvegicus, UniProt Q8VGC3); experiment: Isothermal titration calorimetry, AID peptide:CaVβ2a binding; details: for Kd: 150 mM KCl, 10 mM potassium phosphate, 20 μM peptide into 2 μM CaVβ2a core
Excerpt: Having determined that the backbone staples are able to affect AID helix content (Figure 1) and are structurally compatible with the CaVβ-AID interaction (Figure 2), we used isothermal titration calorimetry (ITC) to investigate whether the AID staples impacted binding thermodynamics. […] (Figure 3A, Table 1). This binding reaction is driven by a favorable enthalpic component (ΔH = −15.6 ± 2.4 kcal mol^–1) that is opposed by a large entropic cost (ΔS = −16.7 ± 6.0 cal mol^–1 K^–1) that most likely results from the requirement to reduce the degrees of freedom of the highly disordered ligand upon binding.
Titrations were performed at 15 °C using a VP-ITC microcalorimeter (MicroCal). Samples were dialyzed overnight at 4 °C (Slide-A-Lyzer, 2 kDa molecular weight cutoff, Thermo Scientific) against 150 mM KCl and 10 mM potassium phosphate, pH 7.3. After 30 min centrifugation at 40 000 rpm at 4 °C, protein concentrations were determined by absorbance at 280 nm.[91] All samples were degassed for 5 min prior to loading into the calorimeter. CaV1.2 CaVβ2a core at a concentration of 2 μM was titrated with 20 μM modified or unmodified AID peptide with one 4 μL injection followed by 29 injections of 10 μL of titrant. To correct the baseline, heat of dilution from titrations of injectant into buffer was subtracted. Data were processed with MicroCal Origin 7.0 using a single site binding model.

[2] = target: CaV1.2-Y437A:CaVβ2a (Rattus norvegicus, UniProt Q8VGC3); experiment: Peptide injection competition, two-electrode voltage clamp, CaV1.2-Y437A:CaVβ2a channels in Xenopus oocytes; details: 400 μM peptide; for ti300, percent inactivation at 300 ms / A1, relative amplitude of fast inactivation component / A2, relative amplitude of second inactivation component / τ1, fast inactivation time constant / τ2, second inactivation time constant: +20 mV; for ti300, percent inactivation at 300 ms / V1/2, midpoint of activation: Ca2+ charge carrier; for ti300, percent inactivation at 300 ms / A1, relative amplitude of fast inactivation component / A2, relative amplitude of second inactivation component / τ1, fast inactivation time constant / τ2, second inactivation time constant / V1/2, midpoint of activation / Imax, maximal current amplitude: mean ± SEM
[3] = Circular dichroism of AID peptides (helical content); assay type: physicochemical; details: 70 μM, 4 °C, 50 mM KCl, 10 mM potassium phosphate, pH 7.3, 2 mm cuvette, triplicate points
Procedure: Circular dichroism spectra were measured in a 2 mm path length quartz cuvette (Hellma), 50 mM KCl, and 10 mM KH2PO4/K2HPO4, pH 7.3, using an Aviv model 215 spectropolarimeter (Aviv Biomedical) equipped with a Peltier temperature controller. Wavelength scans from 320 to 190 nm were taken at 4 °C. Each point was determined in triplicate from the same sample and subtracted by the average of a triplicate buffer scan. Each sample was checked for purity by HPLC. Molar ellipticity was calculated as follows: θ = 100(Δm)/(Cnl), where Δm is the CD signal in millidegrees after buffer subtraction, C is the millimolar peptide concentration, n is the number of residues in the peptide, and l is the cuvette path length in centimeters.

[4] = target: T1, CaV1.2:CaVβ3 (Oryctolagus cuniculus, UniProt P54286); experiment: Peptide injection competition, two-electrode voltage clamp, CaV1.2:CaVβ3 channels in Xenopus oocytes; assay type: cell-based, human CaV1.2; Xenopus oocytes; details: for V1/2, midpoint of activation: Ca2+ charge carrier
T1 construct: expressed in transfected cells; host or cells: Xenopus oocytes (mRNA injection)

[5] = ITC, 15 °C, pH 7.3, single site model, n = 3 (Cav1.2 AID), 2 (AID-CEN), 3 (AID-CAP)
[6] = ITC, 15 °C, pH 7.3, n = 3 (Cav1.2 AID), 2 (AID-CEN), 3 (AID-CAP)
[7] = 2.8 mM peptide, over 30 min postinjection
[8] = 5 min postinjection, 2.8 mM peptide, +20 mV, double exponential fit, mean ± SEM, N = 6 (AID-CAP), 7 (AID)
[9] = 5 min postinjection, 2.8 mM peptide, +20 mV, monoexponential fit, mean ± SEM, N = 6 (AID-CAP), 7 (AID)
[10] = 5 min postinjection, 2.8 mM peptide, mean ± SEM, N = 6 (AID-CAP), 7 (AID)
[11] = 30 min postinjection, 2.8 mM peptide, +20 mV, monoexponential fit, mean ± SEM, N = 6 (AID-CAP), 7 (AID)
[12] = 30 min postinjection, 2.8 mM peptide, mean ± SEM, N = 6 (AID-CAP), 7 (AID)

T1 sequence (P54286 whole entry): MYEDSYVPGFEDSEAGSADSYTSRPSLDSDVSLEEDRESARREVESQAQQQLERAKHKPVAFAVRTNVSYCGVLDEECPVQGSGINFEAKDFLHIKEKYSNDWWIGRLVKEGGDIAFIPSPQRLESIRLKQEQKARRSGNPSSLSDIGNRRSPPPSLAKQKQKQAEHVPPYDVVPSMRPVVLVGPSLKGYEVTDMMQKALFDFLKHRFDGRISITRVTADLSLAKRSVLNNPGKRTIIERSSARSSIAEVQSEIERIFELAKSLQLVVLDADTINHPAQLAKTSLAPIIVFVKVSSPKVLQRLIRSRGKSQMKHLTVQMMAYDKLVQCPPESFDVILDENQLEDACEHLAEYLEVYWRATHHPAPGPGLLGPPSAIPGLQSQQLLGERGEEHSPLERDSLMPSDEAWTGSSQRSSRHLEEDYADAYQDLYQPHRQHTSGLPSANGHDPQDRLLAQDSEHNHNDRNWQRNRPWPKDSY

## CC[C@H](C)[C@H](NC(=O)[C@H](Cc1c[nH]c2ccccc12)NC(=O)[C@H](CC(=O)O)NC(=O)[C@H](CC(C)C)NC(=O)[C@H](Cc1ccc(O)cc1)NC(=O)CNC(=O)[C@H](CCCCN)NC(=O)[C@H](CC(C)C)NC(=O)[C@H](CC(=O)O)NC(=O)[C@@H]1CSCc2cccc(c2)CSC[C@H](N)C(=O)N[C@@H](CO)C(=O)N2CCC[C@H]2C(=O)N[C@@H](CC(C)C)C(=O)N[C@@H](CCC(=O)O)C(=O)N1)C(=O)N[C@H](C(=O)N[C@@H](CCC(N)=O)C(=O)N[C@@H](C)C(=O)N[C@@H](CCC(=O)O)C(N)=O)[C@@H](C)O [AID-CAP] (H-CSPLECDLKGYLDWITQAE-NH2; linker 1-6 via mXylylene)
[1]; [5]
  Kd: 5.1 ± 1.6 nM

## CC[C@H](C)[C@H](NC(=O)[C@H](Cc1c[nH]c2ccccc12)NC(=O)[C@@H]1CSCc2cccc(c2)CSC[C@H](NC(=O)[C@H](CC(C)C)NC(=O)[C@H](CC(=O)O)NC(=O)[C@H](CCC(=O)O)NC(=O)[C@H](CCC(=O)O)NC(=O)[C@H](CC(C)C)NC(=O)[C@@H]2CCCN2C(=O)[C@H](CO)NC(=O)[C@H](C)N)C(=O)NCC(=O)N[C@@H](Cc2ccc(O)cc2)C(=O)N[C@@H](CC(C)C)C(=O)N1)C(=O)N[C@H](C(=O)N[C@@H](CCC(N)=O)C(=O)N[C@@H](C)C(=O)N[C@@H](CCC(=O)O)C(N)=O)[C@@H](C)O [AID-CEN] (H-ASPLEEDLCGYLCWITQAE-NH2; linker 9-13 via mXylylene)
[1]; [5]
  Kd: 5.2 ± 1.5 nM

## CQQLEEDLKGYLDWITQAE-NH2 [AID]
[2]
  P vs HotA, all panels of Figure 5 (ti300, A1, ΔV1/2, Imax): < 0.001
[2]; 30 min postinjection
  effect on inactivation / CaVβ binding, in words: interfered completely with CaVβ binding
  ti300, percent inactivation at 300 ms: 44.8 ± 2.1%
  A1, relative amplitude of fast inactivation component: 24.5 ± 3.0%
  A2, relative amplitude of second inactivation component: 31.0 ± 1.9%
  τ1, fast inactivation time constant: 53.3 ± 14.4 ms
  τ2, second inactivation time constant: 304.0 ± 50.9 ms
  V1/2, midpoint of activation: 15.1 ± 2.0 mV
  Imax, maximal current amplitude: –0.242 ± 0.021
[2]; over 30 min postinjection, vs water or HotA
  rundown of Imax: consistently higher rundown
[2]; 5 min postinjection
  ti300, percent inactivation at 300 ms: 64.9 ± 1.9%
  A1, relative amplitude of fast inactivation component: 48.5 ± 1.8%
  A2, relative amplitude of second inactivation component: 24.1 ± 1.6%
  τ1, fast inactivation time constant: 35.0 ± 1.5 ms
  τ2, second inactivation time constant: 251.5 ± 16.1 ms
  V1/2, midpoint of activation: 2.9 ± 1.7 mV
  Imax, maximal current amplitude: –0.883 ± 0.111
[1]; [5]
  Kd: 6.6 ± 2 nM
  N (binding stoichiometry): 0.94 ± 0.07
[1]; [6]
  ΔH: –15.6 ± 2.4 kcal mol^–1
  ΔS: –16.7 ± 6.0 cal mol^–1 K^–1
[1]; ratio of Kd to that of CaV1.2 AID
  Kd/Kd CaV1.2 AID: 1
[3]
  CD spectrum / helical content, in words: absent
[4]; 2.8 mM peptide vs 4 mM HotA
  P vs HotA, Figure 7B, E, F (ti300, Imax): < 0.001
  P vs HotA, Figure 7C, D (inactivation τ, ΔV1/2): < 0.05
[4]; [7]
  change in channel inactivation kinetics, in words: changed from one having two components to a monoexponential process
  current rundown, in words: strongly increased current rundown
[4]; [8]
  A1: 54.0 ± 2.7%
  A2: 34.1 ± 1.4%
  τ1: 40.0 ± 5.2 ms
  τ2: 354.4 ± 119.2 ms
[4]; [9]
  A1: 76.9 ± 3.1%
  τ1: 62.6 ± 7.6 ms
[4]; 5 min postinjection, 2.8 mM peptide, +20 mV, mean ± SEM, N = 6 (AID-CAP), 7 (AID)
  ti300, percent inactivation at 300 ms: 73.4 ± 2.0%
[4]; [10]
  V1/2, midpoint of activation: 10.4 ± 2.2 mV
  Imax, maximal current amplitude: –0.860 ± 0.096
[4]; [11]
  A1: 65.0 ± 4.0%
  τ1: 118.2 ± 11.0 ms
[4]; 30 min postinjection, 2.8 mM peptide, +20 mV, mean ± SEM, N = 6 (AID-CAP), 7 (AID)
  ti300, percent inactivation at 300 ms: 49.8 ± 1.9%
[4]; [12]
  V1/2, midpoint of activation: 21.0 ± 2.0 mV
  Imax, maximal current amplitude: –0.116 ± 0.010
[4]; 30 min postinjection, AID, AID-CAP 2.8 mM, HotA 4 mM
  effect on CaV1.2α1:CaVβ3 interaction, in words: near complete disruption of the CaV1.2α1:CaVβ3 interaction
